The results in this text go back to ChEMBL document CHEMBL5608203, “Design, synthesis and biological evaluation of a new series of imidazothiazole-hydrazone hybrids as dual EGFR and Akt inhibitors for NSCLC therapy” (Eur J Med Chem, 2024).

Data set [1] has as its system A549. The data set can be described thus: cells. The conditions noted are these: Homo sapiens, A549, 24 h.
Description: Cytotoxicity against human A549 cells incubated for 24 hrs by MTT assay
Data set [2] in a line: Cytotoxicity against human CCD 19Lu cells incubated for 24 hrs by MTT assay. The data set is classed as toxicity, cell-based.
Data set [3] deals with A549. The data set can be described thus: Induction of cell cycle arrest at G0/G1 phase in human A549 cells at IC50 incubated for 24 hrs by PI staining based flow cytometry (reference value: 9.17 %). It is filed as functional. A general note: A flow cytometer gives signals particle by particle.
The subject of data set [4] is A549. The experiment in a line: Induction of cell cycle arrest at G2/M phase in human A549 cells at IC50 incubated for 24 hrs by PI staining based flow cytometry (reference value: 14.00 %). The data set is classed as functional.
The subject of data set [5] is A549. The data set can be described thus: Induction of apoptosis in human A549 cells assessed as viable cells at IC50 incubated for 24 hrs by Annexin V-FITC/PI staining based flow cytometry (reference value: 96.48 %). The data set is classed as functional.
Data set [6] concerns A549. The experiment in a line: Induction of apoptosis in human A549 cells assessed as caspase-3-negative cells at IC50 incubated for 24 hrs by flow cytometry (reference value: 98.49 %). The data set is classed as functional.
The subject of data set [7] is A549. The experiment in a line: Induction of apoptosis in human A549 cells assessed as caspase-3-positive cells at IC50 incubated for 24 hrs by flow cytometry (reference value: 1.50 %). The data set is classed as functional.
Data set [8] relates to A549. The data set can be described thus: Induction of apoptosis in human A549 cells assessed as early apoptotic cells at IC50 incubated for 24 hrs by Annexin V-FITC/PI staining based flow cytometry (reference value: 0.11 %). It is filed as functional.
In data set [9] the test system is A549. The data set can be described thus: Induction of apoptosis in human A549 cells assessed as necrotic cells at IC50 incubated for 24 hrs by Annexin V-FITC/PI staining based flow cytometry (reference value: 2.05 %). It is filed as functional.
Data set [10] deals with A549. The data set can be described thus: Induction of cell cycle arrest at S phase in human A549 cells at IC50 incubated for 24 hrs by PI staining based flow cytometry (reference value: 59.62 %). The data set is classed as functional.
Data set [11] concerns A549. The experiment in a line: Induction of apoptosis in human A549 cells assessed as late apoptotic cells at IC50 incubated for 24 hrs by Annexin V-FITC/PI staining based flow cytometry (reference value: 1.36 %). The data set is classed as functional.

Regarding `N#Cc1ccc(-c2cn3c(CC(=O)N/N=C/c4ccc(-n5cncn5)cc4)csc3n2)cc1`, the IC50 (usually the point on the concentration scale where inhibition reaches its midpoint) in the data set with A549 [1] was found to be 87.5 µM. Besides, the IC50 at 24 h in data set [2] was more than 500 µM.
Regarding `N#Cc1ccc(-c2cn3c(CC(=O)N/N=C/c4ccc(C(F)(F)F)cc4)csc3n2)cc1`, in the data set with A549 [1], the IC50 is more than 500 µM.
With `CC(C)(C)c1ccc(/C=N/NC(=O)Cc2csc3nc(-c4ccc(C#N)cc4)cn23)cc1`, the Activity with A549 [3] is on record as 3.91%; with A549 [4] it was 20.92%; in the data set with A549 [5], 79.17%; with A549 [6] it was 95.41%; in the data set with A549 [7] it was 4.14%; in the data set with A549 [8], 15.38%. For the same compound, the Activity amounted to 0.32% in the data set with A549 [9], 48.94% in the data set on A549 [10] and 5.13% with A549 [11]. The IC50 with A549 [1] was determined as 22.5 µM. In data set [2], half-maximal inhibition (IC50 at 24 h) was put at 66.5 µM.
As to `N#Cc1ccc(-c2cn3c(CC(=O)N/N=C/c4ccc(N5CCCC5)cc4)csc3n2)cc1`, in the data set with A549 [1], the IC50 was more than 500 µM.
Regarding `N#Cc1ccc(-c2cn3c(CC(=O)N/N=C/c4ccc(O)cc4)csc3n2)cc1`, the Activity in the data set on A549 [3] is recorded as 4.95%; in the data set on A549 [4], 26.23%; in the data set with A549 [5], 92.05%; in the data set on A549 [6], 97.42%; with A549 [7] it was 2.36%; with A549 [8] it was 0.03%. In addition, the Activity in the data set with A549 [9] is 3.89%; in the data set on A549 [10], 32.15%; in the data set on A549 [11] it was 4.03%. In the data set on A549 [1], this compound had an IC50 of 23.8 µM. This compound yielded an IC50 at 24 h in data set [2] of more than 500 µM.
As to `N#Cc1ccc(/C=N/NC(=O)Cc2csc3nc(-c4ccc(C#N)cc4)cn23)cc1`, the Activity came to 13.81% in the data set on A549 [3]; 12.95% in the data set with A549 [4]; 62.71% with A549 [5]; 63.66% with A549 [6]; 34.94% in the data set with A549 [7]; 22.33% with A549 [8]. Also, the figures for the Activity in the data set on A549 [9], in the data set on A549 [10] and with A549 [11] were 0.11%, 43.76% and 14.85%, respectively. 43.7 µM corresponded to half-maximal inhibition in the data set on A549 [1] (IC50). In data set [2], this compound registered a half-maximal inhibitory concentration (IC50) at 24 h of more than 500 µM.
Turning to `Cc1ccc(/C=N/NC(=O)Cc2csc3nc(-c4ccc(C#N)cc4)cn23)cc1`, the Activity in the data set on A549 [3] was determined as 6.54%; in the data set with A549 [4] it was 13.74%; with A549 [5], 77.37%; in the data set with A549 [6] it was 97.98%; in the data set with A549 [7] it was 1.88%; with A549 [8] it was 16.74%. The Activity came to 0.17% in the data set on A549 [9], 62.99% with A549 [10] and 5.72% with A549 [11]. Besides, the midpoint of inhibition in the data set on A549 [1], the IC50, lay at 17.7 µM. Moreover, the IC50 at 24 h in data set [2] stood at 115 µM.
On to `CC(C)c1ccc(/C=N/NC(=O)Cc2csc3nc(-c4ccc(C#N)cc4)cn23)cc1`, for which the IC50 in the data set with A549 [1] is 15.5 µM. The compound further yielded a 50% inhibitory concentration (IC50) at 24 h in data set [2] of less than 3.9 µM.
Compound `N#Cc1ccc(-c2cn3c(CC(=O)N/N=C/c4ccc(Br)cc4)csc3n2)cc1` had an IC50 with A549 [1] of more than 500 µM.
As for `N#Cc1ccc(-c2cn3c(CC(=O)N/N=C/c4ccccc4)csc3n2)cc1`, the Activity came out at 7.37% with A549 [3]; 16.14% with A549 [4]; 87.52% with A549 [5]; 95.65% in the data set on A549 [6]; 3.97% with A549 [7]; 8.7% with A549 [8]. Besides, the values for the Activity with A549 [9], in the data set on A549 [10] and in the data set with A549 [11] were 0.02%, 38.28% and 3.76%, respectively. For the same compound, the midpoint of inhibition with A549 [1], the IC50, lay at 51.3 µM. In addition, in [2], the 50% inhibitory concentration (IC50) at 24 h was more than 500 µM.
For `N#Cc1ccc(-c2cn3c(CC(=O)N/N=C/c4ccc(-c5ccccn5)cc4)csc3n2)cc1`, the half-inhibitory concentration (IC50) with A549 [1] was more than 500 µM.
Same read-out and setting: the figure for `N#Cc1ccc(-c2cn3c(CC(=O)N/N=C/c4ccc([N+](=O)[O-])cc4)csc3n2)cc1` is more than 500 µM.
Still for that read-out and setting: the figure for `N#Cc1ccc(Oc2ccc(/C=N/NC(=O)Cc3csc4nc(-c5ccc(C#N)cc5)cn34)cc2)cc1` is more than 500 µM; for `N#Cc1ccc(-c2cn3c(CC(=O)N/N=C/c4ccc5ccccc5c4)csc3n2)cc1` it is more than 500 µM.
With `N#Cc1ccc(-c2cn3c(CC(=O)N/N=C/c4ccc(-n5ccnc5)cc4)csc3n2)cc1`, the IC50 with A549 [1] was 16.9 µM. Moreover, in data set [2], the IC50 at 24 h is 1.44 µM.
On the same counts, the results for `N#Cc1ccc(-c2cn3c(CC(=O)N/N=C/c4ccc(N5CCCCC5)cc4)csc3n2)cc1` are 221 µM and more than 500 µM.
With `N#Cc1ccc(-c2cn3c(CC(=O)N/N=C/c4ccc(Oc5ccccc5)cc4)csc3n2)cc1`, the IC50 in the data set with A549 [1] was more than 500 µM.
`N#Cc1ccc(-c2cn3c(CC(=O)N/N=C/c4ccc(Cl)cc4)csc3n2)cc1` displayed an IC50 in the data set with A549 [1] of more than 500 µM.
Take `CSc1ccc(/C=N/NC(=O)Cc2csc3nc(-c4ccc(C#N)cc4)cn23)cc1`: half-maximal inhibition with A549 [1] (IC50) was put at 379 µM. Further, the IC50 at 24 h in [2] is more than 500 µM.
With `COc1ccc(/C=N/NC(=O)Cc2csc3nc(-c4ccc(C#N)cc4)cn23)cc1`, the Activity in the data set on A549 [3] was found to be 5.65%; with A549 [4], 10.28%; with A549 [5], 73.36%; with A549 [6], 97.08%; in the data set on A549 [7], 2.58%; in the data set on A549 [8], 21.98%. Further, the Activity in the data set on A549 [9] amounted to 0.24%; with A549 [10] it was 68.81%; in the data set on A549 [11], 4.42%. The compound also showed an IC50 with A549 [1] of 14.3 µM. The same compound showed a concentration for half-maximal inhibition (IC50) at 24 h in [2] of 51.7 µM.
The compound `N#Cc1ccc(-c2cn3c(CC(=O)N/N=C/c4ccc(F)cc4)csc3n2)cc1` returned a half-maximal inhibitory concentration (IC50) in the data set with A549 [1] of 101 µM. Half-maximal inhibition in data set [2] (IC50 at 24 h) was put at 44.4 µM.
On the same counts, the results for `CS(=O)(=O)c1ccc(/C=N/NC(=O)Cc2csc3nc(-c4ccc(C#N)cc4)cn23)cc1` are 133 µM and 160 µM.
The compound `N#Cc1ccc(-c2cn3c(CC(=O)N/N=C/c4ccc(Oc5ccc([N+](=O)[O-])cc5)cc4)csc3n2)cc1` showed an IC50 in the data set with A549 [1] of more than 500 µM.
In the data set on A549 [1], `N#Cc1ccc(-c2cn3c(CC(=O)N/N=C/c4ccc(Oc5ccc(F)cc5)cc4)csc3n2)cc1` returned an IC50 of more than 500 µM.
For `N#Cc1ccc(-c2cn3c(CC(=O)N/N=C/c4ccc(N5CCOCC5)cc4)csc3n2)cc1`, half-maximal inhibition in the data set with A549 [1] (IC50) required 12.2 µM. For the same compound, the IC50 at 24 h in data set [2] was found to be 4.9 µM.
Consider `N#Cc1ccc(-c2cn3c(CC(=O)N/N=C/c4ccc(Oc5ccc(Cl)cc5)cc4)csc3n2)cc1`, for which, in the data set on A549 [1], the IC50 is more than 500 µM.
Same read-out and setting: the same measure for `N#Cc1ccc(-c2cn3c(CC(=O)N/N=C/c4ccc(Oc5ccc(Br)cc5)cc4)csc3n2)cc1`: more than 500 µM.
As to `C#Cc1cccc(Nc2ncnc3cc(OCCOC)c(OCCOC)cc23)c1` [ERLOTINIB], the Activity is recorded as 12.58% in the data set with A549 [3]; 13.45% in the data set with A549 [4]; 82.76% with A549 [5]; 93.1% in the data set on A549 [6]; 6.31% with A549 [7]; 12.28% with A549 [8]. For the same compound, the Activity with A549 [9] was 0.09%; in the data set with A549 [10] it was 54.85%; with A549 [11] it was 4.86%.
With `CCn1c(-c2nonc2N)nc2c(C#CC(C)(C)O)ncc(OC[C@H]3CCCNC3)c21` [GSK-690693], the Activity in the data set on A549 [3] was determined as 30.35%; in the data set on A549 [4], 13.5%; in the data set on A549 [5], 36.36%; in the data set with A549 [6], 73.93%; with A549 [7] it was 24.29%; in the data set with A549 [8], 43%. In addition, the Activity in the data set on A549 [9] turned out to be 1.86%; in the data set on A549 [10], 27.55%; with A549 [11] it was 18.78%. In the data set on A549 [1], this compound displayed a half-inhibitory concentration (IC50) of 11.8 µM.
